Results published in patent publication US20250312327A1, “COMPOSITION FOR COMBINATION THERAPY, COMPRISING 2,3,5-SUBSTITUTED THIOPHENE COMPOUND” (PHAROS IBIO CO., LTD, priority 2021, published 2025).
Read-outs that look alike come from different tables or passages of the source. Blank lines part the entries; values can stand above or below the molecule they belong to.

Key:
Experiment in all cases: CellTiter-Glo assay, drug administered alone
Type in all cases: cell-based
BDCM leukemia cell line [1] = conditions: 72 h
Protocol: (§1) The first and second tests were performed in triplicate on the above cell lines while reducing the concentration of venetoclax by half each time from 100 μM, and the third test was performed in triplicate on the BDCM cell line while reducing the concentration of venetoclax by half each time from 100 μM, and performed in triplicate on HL-60, MolM13, MolM14, and MV4-11 cell lines while reducing the concentration of venetoclax by half each time from 2.5 μM. The fourth test was performed in triplicate on HL-60, MolM13, MolM14, and MV4-11 cell lines while reducing the concentration by half each time from 2.5 μM.
(§2) Specifically, in the first and second tests, a 10-fold diluted solution was prepared by dissolving 50 μL of 10 mM venetoclax in 450 μL of solvent. 250 μL of the solution was serially diluted ½, an 8E-tube was filled with 250 μL of each dilution, and 80 μL of each cell line was dispensed into each well of a 96-well plate. Thereafter, 10 μL of each cell line was dispensed using JANUS and incubated for 72 hours under CO2. Celltiter-Glo assay was performed and then IC50 was calculated.
(§3) In the third test, for the BCDM cell line, a 10-fold diluted solution was prepared by dissolving 15 μL of 10 mM venetoclax in 135 μL of solvent. 100 μL of the solution was serially diluted ½, an 8E-tube was filled with 100 μL of each dilution, and the cell line was dispensed into a 96-well plate. Thereafter, 25 μL of the cell line was dispensed using JANUS and incubated for 72 hours under CO2. Celltiter-Glo assay was performed and then IC50 was calculated. Meanwhile, for the HL-60, MolM13, MolM14, and MV4-11 cell lines, a 10-fold diluted solution was prepared by dissolving […] of solvent. 200 μL of the solution was serially diluted ½, an 8E-tube was filled with 200 μL of each dilution, and each of the cell lines was dispensed into a 96-well plate. Thereafter, 60 μL of each cell line was dispensed using JANUS and incubated for 72 hours under CO2. Celltiter-Glo assay was performed and then IC50 was calculated.
(§4) The first and second tests were performed in triplicate on the above cell lines while reducing the concentration of 5-azacytidine by half each time from 100 μM. Specifically, in the first and second tests, a 10-fold diluted solution was prepared by dissolving 15 μL of 20 mM 5-azacytidine in 285 μL of solvent. 250 μL of the solution was serially diluted ½, an 8E-tube was filled with 250 μL of each dilution, and 80 μL of each cell line (3,000 cells) was dispensed into each well of a 96-well plate. Thereafter, 10 μL of each cell line was dispensed using JANUS and incubated for 72 hours under CO2. Celltiter-Glo assay was performed and then IC50 was calculated.
as §4, with “cytarabine” for “5-azacytidine”, “50,000” for “100”, “10” for “15”, “50” for “20”, “490” for “285”

HL-60 leukemia cell line [2] = conditions: Homo sapiens
Protocol: as §1, §2, §3
(§5) The fourth test was performed on HL-60, MolM13, MolM14, and MV4-11 cell lines in the same manner as the third test.
as §4
as §4, with “cytarabine” for “5-azacytidine”, “50,000” for “100”, “10” for “15”, “50” for “20”, “490” for “285”

[3] = tested on: MV4-11 leukemia cell line; conditions: Homo sapiens
Protocol: as §1, §2, §3, §5, §4
as §4, with “cytarabine” for “5-azacytidine”, “50,000” for “100”, “10” for “15”, “50” for “20”, “490” for “285”

[4] = tested on: MolM13 leukemia cell line; conditions: Homo sapiens
Protocol: as §1, §2, §3, §5, §4
as §4, with “cytarabine” for “5-azacytidine”, “50,000” for “100”, “10” for “15”, “50” for “20”, “490” for “285”

[5] = tested on: MolM14 leukemia cell line; conditions: Homo sapiens
Protocol: as §1, §2, §3, §5, §4
as §4, with “cytarabine” for “5-azacytidine”, “50,000” for “100”, “10” for “15”, “50” for “20”, “490” for “285”

THP-1 leukemia cell line [6] = conditions: Homo sapiens, THP-1, 72 h
Protocol: as §1, §2, §4
as §4, with “cytarabine” for “5-azacytidine”, “50,000” for “100”, “10” for “15”, “50” for “20”, “490” for “285”

U937 leukemia cell line [7] = conditions: Homo sapiens, U-937, 72 h
Protocol: as §1, §2, §4
as §4, with “cytarabine” for “5-azacytidine”, “50,000” for “100”, “10” for “15”, “50” for “20”, “490” for “285”

BDCM leukemia cell line [8] = tested on: BDCM leukemia cell line
HL-60 leukemia cell line [9] = conditions: Homo sapiens; remark: listed apart in the source
THP-1 leukemia cell line [10] = conditions: Homo sapiens
U937 leukemia cell line [11] = conditions: Homo sapiens
[12] = 5-azacytidine alone, read-out: IC50 First test
[13] = 5-azacytidine alone, read-out: IC50 Second test
[14] = azacitidine administered alone, Table 10, read-out: IC50 Azacitidine
[15] = cytarabine alone, read-out: IC50 First test
[16] = cytarabine alone, read-out: IC50 Second test
[17] = cytarabine administered alone, Table 13, read-out: IC50 Cytarabine
[18] = venetoclax alone, read-out: IC50 First test
[19] = venetoclax alone, read-out: IC50 Second test
[20] = venetoclax administered alone, Table 7, read-out: IC50 Venetoclax

IC50 (BDCM leukemia cell line [1]; [12]): 14.8 µM
IC50 (BDCM leukemia cell line [1]; [13]): 23.6 µM
IC50 (HL-60 leukemia cell line [2]; HL-60, 72 h, 5-azacytidine alone, 72 hours, read-out: IC50 First test): 14.7 µM
IC50 (HL-60 leukemia cell line [2]; HL-60, 72 h, 5-azacytidine alone, 72 hours, read-out: IC50 Second test): 13.2 µM
IC50 ([3]; 5-azacytidine alone, 72 hours, read-out: IC50 First test): 3.05 µM
IC50 ([3]; 5-azacytidine alone, 72 hours, read-out: IC50 Second test): 2.45 µM
IC50 [3, 14]: 2.05 µM
IC50 ([4]; MOLM-13, 5-azacytidine alone, MolM13, 72 hours, read-out: IC50 First test): 1.71 µM
IC50 ([4]; MOLM-13, 5-azacytidine alone, MolM13, 72 hours, read-out: IC50 Second test): 1.41 µM
IC50 ([4]; azacitidine administered alone, MolM 13, Table 10, read-out: IC50 Azacitidine): 1.38 µM
IC50 ([5]; MOLM-14, 72 h, 5-azacytidine alone, MolM14, 72 hours, read-out: IC50 First test): 3.88 µM
IC50 ([5]; MOLM-14, 72 h, 5-azacytidine alone, MolM14, 72 hours, read-out: IC50 Second test): 2.82 µM
IC50 ([5]; MOLM-14, azacitidine administered alone, MolM 14, Table 10, read-out: IC50 Azacitidine): 1.59 µM
IC50 (THP-1 leukemia cell line [6]; [12]): 6.08 µM
IC50 (THP-1 leukemia cell line [6]; [13]): 6.38 µM
IC50 (U937 leukemia cell line [7]; [12]): 1.91 µM
IC50 (U937 leukemia cell line [7]; [13]): 2.54 µM
IC50 (BDCM leukemia cell line [8]; [14]): 98.2 µM
IC50 (HL-60 leukemia cell line [9]; HL-60, azacitidine administered alone, Table 10, read-out: IC50 Azacitidine): 9.66 µM
IC50 (THP-1 leukemia cell line [10]; THP-1, azacitidine administered alone, Table 10, read-out: IC50 Azacitidine): 3.38 µM
IC50 (U937 leukemia cell line [11]; U-937, azacitidine administered alone, Table 10, read-out: IC50 Azacitidine): 3.06 µM
Compound: Nc1ncn([C@@H]2O[C@H](CO)[C@@H](O)[C@H]2O)c(=O)n1 [5-azacytidine]

IC50 (BDCM leukemia cell line [1]; [15]): 2.83 µM
IC50 (BDCM leukemia cell line [1]; [16]): 4.48 µM
IC50 (HL-60 leukemia cell line [2]; HL-60, 72 h, cytarabine alone, 72 hours, read-out: IC50 First test): 0.221 µM
IC50 (HL-60 leukemia cell line [2]; HL-60, 72 h, cytarabine alone, 72 hours, read-out: IC50 Second test): 0.163 µM
IC50 [3, 17]: 0.081 µM
IC50 ([3]; cytarabine alone, 72 hours, read-out: IC50 First test): 0.1 µM
IC50 ([3]; cytarabine alone, 72 hours, read-out: IC50 Second test): 0.108 µM
IC50 ([4]; MOLM-13, cytarabine alone, MolM13, 72 hours, read-out: IC50 First test): 0.039 µM
IC50 ([4]; MOLM-13, cytarabine alone, MolM13, 72 hours, read-out: IC50 Second test): 0.0418 µM
IC50 ([4]; cytarabine administered alone, MolM 13, Table 13, read-out: IC50 Cytarabine): 0.0296 µM
IC50 ([5]; MOLM-14, 72 h, cytarabine alone, MolM14, 72 hours, read-out: IC50 First test): 0.099 µM
IC50 ([5]; MOLM-14, 72 h, cytarabine alone, MolM14, 72 hours, read-out: IC50 Second test): 0.0933 µM
IC50 ([5]; MOLM-14, cytarabine administered alone, MolM 14, Table 13, read-out: IC50 Cytarabine): 0.0847 µM
IC50 (THP-1 leukemia cell line [6]; [15]): 0.0112 µM
IC50 (THP-1 leukemia cell line [6]; [16]): 0.0153 µM
IC50 (U937 leukemia cell line [7]; [15]): 0.0183 µM
IC50 (U937 leukemia cell line [7]; [16]): 0.0184 µM
IC50 (BDCM leukemia cell line [8]; [17]): 2.34 µM
IC50 (HL-60 leukemia cell line [9]; HL-60, cytarabine administered alone, Table 13, read-out: IC50 Cytarabine): 0.17 µM
IC50 (THP-1 leukemia cell line [10]; THP-1, cytarabine administered alone, Table 13, read-out: IC50 Cytarabine): 0.0106 µM
IC50 (U937 leukemia cell line [11]; U-937, cytarabine administered alone, Table 13, read-out: IC50 Cytarabine): 0.00925 µM
Compound: Nc1ccn([C@@H]2O[C@H](CO)[C@@H](O)[C@@H]2O)c(=O)n1 [Cytarabine]

IC50 (BDCM leukemia cell line [1]; [18]): 12.2 µM
IC50 (BDCM leukemia cell line [1]; [19]): 9.86 µM
IC50 (BDCM leukemia cell line [1]; venetoclax alone, read-out: IC50 Third test): 12.8 µM
IC50 (HL-60 leukemia cell line [2]; HL-60, 72 h, venetoclax alone, 72 hours, read-out: IC50 First test): 0.353 µM
IC50 (HL-60 leukemia cell line [2]; HL-60, 72 h, venetoclax alone, 72 hours, read-out: IC50 Fourth test): 0.276 µM
IC50 (HL-60 leukemia cell line [2]; HL-60, 72 h, venetoclax alone, 72 hours, read-out: IC50 Second test): 0.21 µM
IC50 (HL-60 leukemia cell line [2]; HL-60, 72 h, venetoclax alone, 72 hours, read-out: IC50 Third test): 0.283 µM
IC50 (HL-60 leukemia cell line [2]; HL-60, venetoclax alone, read-out: IC50): ≤ 1 µM
IC50 [3, 20]: 0.0137 µM
IC50 ([3]; venetoclax alone, 72 hours, read-out: IC50 First test): 0.0068 µM
IC50 ([3]; venetoclax alone, 72 hours, read-out: IC50 Fourth test): 0.0141 µM
IC50 ([3]; venetoclax alone, 72 hours, read-out: IC50 Second test): 0.0087 µM
IC50 ([3]; venetoclax alone, 72 hours, read-out: IC50 Third test): 0.0219 µM
IC50 ([3]; venetoclax alone, read-out: IC50): ≤ 1 µM
IC50 ([4]; MOLM-13, venetoclax alone, MolM13, 72 hours, read-out: IC50 First test): 0.0018 µM
IC50 ([4]; MOLM-13, venetoclax alone, MolM13, 72 hours, read-out: IC50 Fourth test): 0.0103 µM
IC50 ([4]; MOLM-13, venetoclax alone, MolM13, 72 hours, read-out: IC50 Second test): 0.0125 µM
IC50 ([4]; MOLM-13, venetoclax alone, MolM13, 72 hours, read-out: IC50 Third test): 0.0086 µM
IC50 ([4]; MOLM-13, venetoclax alone, MolM13, read-out: IC50): ≤ 1 µM
IC50 ([4]; venetoclax administered alone, MolM 13, Table 7, read-out: IC50 Venetoclax): 0.0146 µM
IC50 ([5]; MOLM-14, 72 h, venetoclax alone, MolM14, 72 hours, read-out: IC50 First test): 0.172 µM
IC50 ([5]; MOLM-14, 72 h, venetoclax alone, MolM14, 72 hours, read-out: IC50 Fourth test): 0.219 µM
IC50 ([5]; MOLM-14, 72 h, venetoclax alone, MolM14, 72 hours, read-out: IC50 Second test): 0.415 µM
IC50 ([5]; MOLM-14, 72 h, venetoclax alone, MolM14, 72 hours, read-out: IC50 Third test): 0.147 µM
IC50 ([5]; MOLM-14, venetoclax administered alone, MolM 14, Table 7, read-out: IC50 Venetoclax): 0.283 µM
IC50 ([5]; MOLM-14, venetoclax alone, MolM14, read-out: IC50): ≤ 1 µM
IC50 (THP-1 leukemia cell line [6]; [18]): 12.5 µM
IC50 (THP-1 leukemia cell line [6]; [19]): 12.5 µM
IC50 (U937 leukemia cell line [7]; [18]): 7.31 µM
IC50 (U937 leukemia cell line [7]; [19]): 8.32 µM
IC50 (BDCM leukemia cell line [8]; [20]): 11 µM
IC50 (HL-60 leukemia cell line [9]; HL-60, venetoclax administered alone, Table 7, read-out: IC50 Venetoclax): 0.275 µM
IC50 (THP-1 leukemia cell line [10]; THP-1, venetoclax administered alone, Table 7, read-out: IC50 Venetoclax): 12.5 µM
IC50 (U937 leukemia cell line [11]; U-937, venetoclax administered alone, Table 7, read-out: IC50 Venetoclax): 7.8 µM
Compound: CC1(C)CCC(CN2CCN(c3ccc(C(=O)NS(=O)(=O)c4ccc(NCC5CCOCC5)c([N+](=O)[O-])c4)c(Oc4cnc5[nH]ccc5c4)c3)CC2)=C(c2ccc(Cl)cc2)C1 [Venetoclax]
